The term IC50 denotes the concentration that inhibits the measured activity by half.

Data on one molecule can be found in patent US7732435B2, “Chromone derivatives useful as antagonists of VR1 receptors” (Novartis AG, priority 2005, dated 2010).

Molecules are shown by their SMILES. Like-named read-outs stand apart in the source and are kept apart here.

This assay concerns the target TRPV1 receptor (UniProt Q8NER1). Kind of assay: Calcium mobilisation assay in CHO-K1 cells expressing the TRPV1 receptor (inhibition of capsaicin or low pH activation). Particulars: species not specified. Type of assay: cell-based, human, rat or guinea pig. The method, then: Chinese Hamster Ovary-K1 (CHO-K1) cells, transfected to express either the human, rat or guinea pig TRPV1 receptor, were grown in Minimal Essential Media (MEM) alpha medium without nucleosides supplemented with fetal calf serum (10%), 2 mM L-glutamine, 100 IU/mL penicillin, 100 μg/ml streptomycin and 350-700 μg/ml geneticin. All reagents were supplied by Invitrogen. Cells were grown in T-175 flasks or Costar black, clear-bottomed 96-well view plates and maintained at 37° C. in a 90% humidified incubator with an atmosphere of 5% CO2 and 95% air. The cells were passaged twice a week at a ratio of 1:10 to 1:20 to maintain steady growth. For experimentation, cells were harvested at approximately 80% confluency and plated onto view plates at 40,000 cells per well in 100 μL media and grown overnight.
Calcium Mobilisation Assay […]
For orientation: Calcium assays in cells follow changes in intracellular calcium, usually with a dye or a luminescent sensor.

In the case of `CC(C)c1oc2c(ccc3[nH]c(C(C)(F)F)nc32)c(=O)c1-c1ccc(Cl)cc1` [Example 8, 7-(4-Chlorophenyl)-2-(1,1-difluoroethyl)-8-isopropyl-3H-chromeno[7,8-d]imidazol-6-one], the IC50 runs as follows: (TRPV1 stimulated by capsaicin at EC80 concentration, read-out: IC50 (capsacin)) 68 nM; (TRPV1 stimulated by low pH, final pH 5.5, read-out: IC50 (pH 5.5)) 54 nM.
